In data set [1] the test system is MGC-803. The data set can be described thus: Downregulation of ACAT2 mRNA level in human MGC-803 cells at 4 uM incubated for 24 hrs by RT-qPCR analysis. Format: functional, cell-based. (In general: In qPCR the cycle at which signal appears reflects the starting amount.)
For data set [2], the system named is MGC-803. The data set can be described thus: Antiproliferative activity against human MGC-803 cells assessed as inhibition of cell growth incubated for 72 hrs by MTT assay. Format: functional, cell-based. Conditions: MGC-803, 72 h.
Data set [3] deals with MGC-803. Put plainly: Induction of apoptosis in human MGC-803 cells assessed as viable cells at 4 uM incubated for 48 hrs by Annexin V-FITC/PI staining based flow cytometry analysis (reference value: 93.9%). Format: functional. The settings on record: read-out: Activity. (In general: Flow cytometry measures light scatter and fluorescence of single cells or particles in a stream.)

The test system of data set [4] is MGC-803. The data set can be described thus: Downregulation of c-FOS mRNA level in human MGC-803 at 4 uM incubated for 24 hrs by RT-qPCR analysis. Format: functional, cell-based.
For data set [5], the system named is MGC-803. Put plainly: Induction of apoptosis in human MGC-803 cells assessed as upregulation of cleaved caspase-3 expression at 1 to 4 uM incubated for 24 hrs by Western blot analysis. Format: functional, cell-based. The settings on record: dose 1-4 µM. (In general: A western blot detects proteins with antibodies after separation by electrophoresis.)
The next data set concerns ECa-109 cell line. Put plainly: Antiproliferative activity against human Eca-109 cells assessed as inhibition of cell growth incubated for 24 to 72 hrs by MTT assay. Format: functional, cell-based. The settings on record: time 24-72 hrs.
Data set [6] deals with MGC-803. Put plainly: Induction of apoptosis in human MGC-803 cells assessed as viable cells at 2 uM incubated for 48 hrs by Annexin V-FITC/PI staining based flow cytometry analysis (reference value: 93.9%). Format: functional. The settings on record: read-out: Activity.
For data set [7], the system named is MGC-803. The data set can be described thus: Induction of cell cycle arrest in human MGC-803 cells assessed as accumulation of cells at G2/M phase at 0.25 uM incubated for 48 hrs by PI staining based flow cytometry analysis. Format: functional.
The subject of data set [8] is MGC-803. The data set can be described thus: Downregulation of c-jun level in human MGC-803 cells at 4 uM incubated for 24 hrs by immunoblotting analysis. Format: functional, cell-based.
For data set [9], the system named is MGC-803. The data set can be described thus: Induction of cell cycle arrest in human MGC-803 cells assessed as reduction in CDC25C level incubated for 24 hrs by Western blot analysis. Format: functional, cell-based. Conditions: dose 1-4 µM.
Data set [10] concerns MGC-803. The data set can be described thus: Induction of apoptosis in human MGC-803 cells assessed as upregulation of cleaved PARP expression at 1 to 4 uM incubated for 24 hrs by Western blot analysis. Format: functional, cell-based. Conditions: dose 1-4 µM.
The test system of the next data set is A549. The data set can be described thus: Antiproliferative activity against human A549 cells assessed as inhibition of cell growth incubated for 24 to 72 hrs by MTT assay. Format: functional, cell-based. Conditions: time 24-72 hrs.
Data set [11] concerns MGC-803. Put plainly: Antiproliferative activity against human MGC-803 cells assessed as inhibition of cell growth incubated for 24 to 72 hrs by MTT assay. Format: functional, cell-based.
The test system of data set [12] is MGC-803. The data set can be described thus: Induction of apoptosis in human MGC-803 cells assessed as late apoptotic cells at 4 uM incubated for 48 hrs by Annexin V-FITC/PI staining based flow cytometry analysis (reference value: 0.98%). Format: functional.
The nature of data set [13]: Toxicity in BALB/c mouse implanted with human MGC-803 cells assessed as body weight loss at 25 to 50 mg/kg, IG. Format: organism-based. Conditions: in vivo, po, dose 25-50 mg/kg.
The test system of the next data set is AGS. Put plainly: Antiproliferative activity against human AGS cells assessed as inhibition of cell growth incubated for 48 hrs by MTT assay. Format: functional, cell-based.

Active and inactive are the calls of the source. The rule behind the calls is not given here.

As for `C=C1CC[C@@H]2[C@](C)(CO)[C@H](O)CC[C@@]2(C)[C@@H]1/C=C/C1=CC(=C/c2ccc(C)cc2)/NC1=O`, the result with MGC-803 [1], in the data set on MGC-803 [4], in the data set with MGC-803 [5], in the data set with MGC-803 [8] and in the data set on MGC-803 [10] was Active. Moreover, the 50% inhibitory concentration (IC50) (usually the point on the concentration scale where inhibition reaches its midpoint) in the data set on MGC-803 [2] amounted to 2870 nM; in the data set with MGC-803 [11], 2310 nM; with AGS it was 5240 nM. In the data set on MGC-803 [3], the viability at 4 µM amounted to 16%. Moreover, the outcome with ECa-109 cell line and in the data set with A549 was inactive. The viability at 2 µM in the data set on MGC-803 [6] was 40.2%. Also, the Activity in the data set with MGC-803 [7] is 9.59%; with MGC-803 [9], “Dose-dependent-effect”; in the data set with MGC-803 [11] (time 24-72 hrs) it was “Dose-dependent-effect”; in the data set on MGC-803 [12], 47.5%; in [13], “Non-toxic”.

The values are drawn from ChEMBL document CHEMBL6153084, “The development of α, β-unsaturated lactam-based andrographolide derivatives as anti-gastric cancer agents with the ability of inhibiting the ERK/c-Fos/Jun pathway” (Eur J Med Chem, 2025).
